What is called melting point is the temperature of the solid-liquid transition. On to `CC1Cc2cc(S(=O)(=O)n3cc(-c4ccccc4)[nH]c3=O)ccc2N1C(=O)c1ccc(NC(=O)CCl)cc1` (stereo not drawn), for which the melting point came to 246 °C.

Regarding `O=C(O)COc1cccc(CSc2nc(-c3ccccc3)c(-c3ccccc3)[nH]2)c1`, the melting point fell in the range of 233 to 235 °C.

`CC(C)[Si](Oc1ccc2c(c1)OCC(N1CCC(O)(c3ccccc3)CC1)C2=O)(C(C)C)C(C)C` (stereo not drawn) came in with a melting point of 132 °C.

The compound `O=C1N(Cc2cnccn2)c2ccccc2C12COc1cc3c(cc12)OCCO3` (stereo not drawn) displayed a melting point of 216 to 218 °C.

`O=C(O)c1ccc(OCCNC(=O)C2Cc3ccccc3N2S(=O)(=O)c2ccc(-c3ccc(F)cc3)cc2)cc1` (stereo not drawn) yielded a melting point of 108 °C.

The compound `COc1ccc(C2CCN(C(=O)NCc3ccccn3)CC2)cc1OC1CCCC1` had a melting point of 104 to 105 °C.

In turn, `CN(C)S(=O)(=O)n1cc(-c2ccc(Cl)cc2Cl)nc1C1=NC(=O)C(=O)S1` gave a melting point of 158 °C.

As for `CN(c1ccncc1)c1ccccc1C(=O)N1CCCCC1`, the melting point is 110 to 111 °C.

For `COC(CC[C@](C)(O)[C@@H](/C=C\C=C\c1ccccc1)Sc1ccccc1)OC` (racemic), the melting point is 59.5 to 61 °C.

`CCC(C)NC(=O)c1ncc(C)cc1C(N)=O` (stereo not drawn): the melting point lay in the range of 119 to 123 °C.

In the case of `O=C(C=C(O)c1ccccc1O)c1cn(S(=O)(=O)c2ccccc2)c2ccc(Cl)cc12`, the melting point fell in the range of 241 to 244 °C.

In turn, `Cc1cc(-c2ccc(S(N)(=O)=O)cc2)n(-c2ccc(Cl)cc2)c1` gave a melting point of 171 to 173 °C.

As for `COc1cc2c(cc1OCc1ccccc1)CCN(Cc1cccnc1)C2`, the melting point lay in the range of 78 to 79 °C.

In turn, `Nc1ccc(Cl)cc1C(=O)c1cccc(Cl)c1` registered a melting point of 118 to 119 °C.

`NS(=O)(=O)c1ccc(-c2[nH]c3ccccc3c2-c2ccc(O)cc2)cc1` gave a melting point of 241 to 243 °C.

The compound `c1cc(CN2CCc3cccc(CCc4nnn[nH]4)c32)cc(OCc2ccc3ccccc3n2)c1` yielded a melting point of 148 to 151 °C.

As to `CN1C(=O)C(c2ccccc2)Oc2cccc3nc4c(c1c23)CCCC4` (stereo not drawn), the melting point was 188 to 189 °C.

As to `CC(OCn1cc(Cl)cnc1=O)c1ccccc1` (stereo not drawn), the melting point was 139 °C.

Turning to `CC1(C)CCCC(N2CCN(C3CCC(C(C)(C)C)CC3)CC2)C1` (stereo not drawn), the melting point was in the range of 90 to 92 °C.

`CN1CCC2(CC1)Nc1cc(Cl)c(Cl)cc1-n1cccc12` returned a melting point of 214 to 215 °C.

As to `c1cncc(-c2nnc(NCC3CC3)s2)c1`, the melting point fell in the range of 162 to 165 °C.

As to `CC(C)(Oc1ccc(Cl)cc1)C(=O)NCCO[N+](=O)[O-]`, the melting point fell in the range of 81 to 82 °C.

The compound `CS(=O)(=O)Nc1cc2occ(N3CCCC3=O)c(=O)c2cc1Oc1ccccc1` displayed a melting point of 192 to 193 °C.

`CSc1cc(Cl)ccc1C(=O)C(C#N)C(=O)c1cc(C(F)(F)F)cc(C(F)(F)F)c1` (stereo not drawn) yielded a melting point of 146 to 149 °C.

As for `O=C(Nc1nc(-c2ccccn2)nc2ccccc12)C(F)(F)F`, the melting point lay in the range of 245 to 248 °C.

Take `COc1cc(-c2cc(C(F)(F)F)nn2-c2ccc(S(C)(=O)=O)cc2)ccc1-c1cscn1`: the melting point was in the range of 164 to 166 °C.

In the case of `CC(C)(C)OC(=O)N1CCC(=O)N1c1ccccc1`, the melting point came out at 150 °C.

`CSc1ccc(COC(=O)N2CCN(CC3(C)Cn4cc([N+](=O)[O-])nc4O3)CC2)cc1` (stereo not drawn) returned a melting point of 118 to 120 °C.

Take `Cc1cc2ccc3c(c2o1)OC(CN1CC=C(c2c[nH]c4ccccc24)CC1)CO3` (stereo not drawn): the melting point was in the range of 198 to 200 °C.

For `CON(CCCc1ccc(Cl)c(Cl)c1)C(=O)C1=C(O)C(=O)N(C)C1`, the melting point fell in the range of 106 to 108 °C.

For `COc1ccc(C2(O)CC3CCC(C2)N3C)cc1` (stereo not drawn), the melting point came to 162 °C.

As to `CCOC(=O)CN(CC(=O)OCC)Cc1ccc2cc(N)c3ccc(CN(CC(=O)OCC)CC(=O)OCC)nc3c2n1`, the melting point fell in the range of 137 to 139 °C.

Turning to `CC(C)Oc1cc(NC(=O)C2CCCCN2)c(F)cc1Cl` (stereo not drawn), the melting point lay within 96 to 98 °C.

Compound `Cc1ncc(CN2C(=O)c3ccccc3C2=O)n1-c1ccc(Cl)cc1Cc1ccccc1F` displayed a melting point of 152 to 156 °C.

`O=C1CSC(c2ccc(-n3ccc(=O)cc3)cc2)=NN1`: the melting point was 289 to 291 °C.

`CC(=CC(=O)Nc1ccccc1)Oc1ccccc1`: the melting point came to 145 °C.

The compound `Nc1cc([N+](=O)[O-])ccc1OCC(O)CN1C(=O)CCC1=O` (stereo not drawn) displayed a melting point of 200 °C.

For the compound `COc1cc(F)ccc1C(C)(C)CC#N`, the melting point lay within 80 to 83 °C.

In turn, `CCOC(=O)c1ccc2ccccc2c1` came in with a melting point of 35 to 36.5 °C.

With `CCCNC(=O)C1(O)CC(O)C(O)C(O)C1` (stereo not drawn), the melting point was 132 to 133 °C.

In turn, `CCOC(=O)C1=C[C@@H]2OC(C)=N[C@@H]2[C@@H](NC(=O)OC(C)(C)C)C1` came in with a melting point of 45 to 49 °C.

`COc1cc(NOC(C)=O)cc(OC)c1` returned a melting point of 163 to 165 °C.

On to `COc1ccc(C(=O)Cc2cc(OC)ccc2OC)c(Br)c1`, for which the melting point is 76 to 79 °C.

The compound `Fc1nc(F)c(F)c(F)n1` returned a melting point of 104 °C.

With `O=c1ccn(-c2ccccc2F)nc1-c1ccnn1-c1ccccc1`, the melting point was in the range of 124 to 125 °C.

Turning to `C=CCc1c(C=O)cccc1OCc1ccccc1`, the melting point was 66 to 67 °C.

Compound `Cc1ccc(-c2nc(-c3ccc(C)cc3C)nc(-c3ccc(O)cc3O)n2)c(C)c1` yielded a melting point of 199 to 201 °C.

With `CCCN(CCC)C1CCc2cc(NC(=O)C=NO)ccc2C1` (stereo not drawn), the melting point lay within 110 to 112 °C.

`O=C(c1ccc(Cl)cc1Cl)N1CCc2cc(S(=O)(=O)N3CCN(c4cccc(Cl)c4)CC3)ccc21` registered a melting point of 184 °C.

Turning to `C[C@H](N=C(C(N)=O)C(C)(C)C)c1ccccc1`, the melting point lay within 100 to 101 °C.

Compound `COc1cc2c(Nc3ccc(Cl)cc3F)c(C#N)cnc2cc1OCc1ccccc1` returned a melting point of 241 to 243 °C.

For the compound `Cc1oc(-c2ccccc2)nc1COc1cccc(C=O)c1`, the melting point was in the range of 67 to 68 °C.

Regarding `COc1cc2ncc(F)c(Cl)c2cc1OC`, the melting point lay in the range of 159 to 160 °C.

On to `CS(=O)(=O)N1CCC(C(=O)N(CCCN2CCC(Cc3ccc(F)cc3)CC2)c2ccc(Cl)c(Cl)c2)CC1`, for which the melting point is 148 to 150 °C.

For the compound `NS(=O)(=O)c1cccc2c1COC2`, the melting point was in the range of 153 to 158 °C.

The compound `CNC(=O)[C@@H](C[C@H](O)[C@H](CC1CCCCC1)NC(=O)[C@H](Cc1cscn1)NC(=O)[C@@H](CC(=O)N1CCOCC1)Cc1ccccc1)C(C)(C)O` gave a melting point of 150 to 152 °C.

Regarding `O=C1N(Cc2cnc(N3CCOCC3)s2)c2ccccc2C12COc1cc3c(cc12)OCO3` (stereo not drawn), the melting point fell in the range of 97 to 99 °C.

In turn, `COc1cccc2c1nc(C(F)F)n2-c1nc(C2CCCN(C(=O)OC(C)(C)C)C2)nc(N2CCOCC2)n1` (stereo not drawn) returned a melting point of 200 to 202 °C.

`COC(=O)/C=C/n1cnc2ccc(OC)cc2c1=O` returned a melting point of 184 to 186 °C.

In turn, `C[C@@H](CO)Oc1cc(Oc2ccc(C(=O)N3CCC3)cc2)cc(C(=O)Nc2ccn(C)n2)c1` displayed a melting point of 131 °C.

As for `CC1(C)OCc2c1nc1ccccc1c2NCCCN1CCCC1`, the melting point was in the range of 70 to 75 °C.

`CNC(=O)c1cccc(NC(=O)Cc2ccc3c(c2)OCO3)c1`: the melting point is 174 to 175 °C.

`O=C1NC(c2ccccc2)C(C(=O)NCCO[N+](=O)[O-])O1` (stereo not drawn) displayed a melting point of 122 to 124 °C.

Compound `CCOC(=O)c1cnc2c(c(C)nc3cc(C)nn32)c1NC` returned a melting point of 208 to 210 °C.

Take `N#Cc1ccc2[nH]cc(C3=CCC4(CC3)OCCO4)c2c1`: the melting point lay within 158 to 160 °C.

Regarding `CCC(CC)(CC)C(=O)O[C@H]1CCC=C2C=C[C@H](C)[C@H](CC[C@@H]3C[C@@H](O)CC(=O)O3)[C@H]21`, the melting point was 65 to 68 °C.

In turn, `COc1cc(-c2ncc(C(F)(F)F)cc2OC)ccc1Cl` gave a melting point of 62 to 63 °C.

The compound `OCc1ccc(O)c(CO)c1CNCCCCCCOCCCCCc1ccco1` showed a melting point of 59 to 60 °C.

For `CCCC[C@H](NC(=O)[C@H](CC(C)C)NC(=O)c1cc(F)ccc1F)C(=O)CSCc1ccco1`, the melting point amounted to 102 °C.

On to `Cc1ccccc1-c1ccc2c(c1)CN(CCNC(=O)C1CCCC1)C(N)=N2`, for which the melting point was 43 to 46 °C.

As to `COc1cc(COC(=O)NC2Cc3ccccc3C2)ccc1OC(C)=O`, the melting point fell in the range of 114 to 116 °C.

With `CNC(=O)CC(SC(C)=O)C(CC(C)C)C(=O)NC(Cc1ccc(OC)cc1)C(=O)NC` (stereo not drawn), the melting point lay in the range of 195 to 199 °C.

With `COc1ccc2sc3c(c2c1)SCCNC3=O`, the melting point lay in the range of 209 to 210 °C.

As for `CC1Oc2cc(Cl)ccc2/C1=N\NC(=O)Nc1ccc(C(F)(F)F)cc1` (stereo not drawn), the melting point is 205 to 207 °C.

As to `COC(=NC#N)NCc1ccc(-c2csc(N=C(N)N)n2)o1`, the melting point was 205 to 206 °C.

As for `COc1cc(Cl)cc(Cl)c1O`, the melting point was 62 °C.

`O=S(=O)(c1ccc(F)cc1)c1ccc(S)cc1` had a melting point of 116 °C.

Take `CCCCCCCCCCCCCCCCCCOC(=O)N(N)C(=O)c1cc(O)ccc1O`: the melting point was 163 °C.

`CN(CCN1CCOCC1)Cc1ccc(COc2cccc3c2CN(C2CCC(=O)NC2=O)C3=O)cc1` (stereo not drawn) showed a melting point of 193 to 195 °C.

Consider `IC#CCSc1cccnc1`, for which the melting point lay in the range of 114 to 116 °C.

Compound `CCCCOC(=O)C1CC(n2cnc3c(Cl)ncnc32)C(O)C1O` (stereo not drawn) had a melting point of 104 to 106 °C.

Take `C=Cc1nnc2ccc3ccccc3n12`: the melting point fell in the range of 117 to 118 °C.

With `COC(=O)[C@H]1CN(c2cc(F)c(N3CCSCC3)c(F)c2)C(=O)O1`, the melting point was in the range of 99 to 101 °C.

In the case of `COC(=O)c1nc2cc(Cl)c3cccnc3c2o1`, the melting point was 214 to 215 °C.

`CCCCCNC(=O)C(C)Cc1ccc2c(c1)c(Cc1ccc(C(=O)O)cc1OC)cn2C` (stereo not drawn) registered a melting point of 85 to 95 °C.

`CN(c1cc2occc(=O)c2cc1Oc1ccccc1)S(C)(=O)=O` came in with a melting point of 187 to 189 °C.

`O=[N+]([O-])c1ccc(Sc2ccc(C(F)(F)F)cc2)c2nonc12` showed a melting point of 134 to 138 °C.

Compound `CN1C(c2cnc3ccccc3c2)c2ccccc2CC1(C)C` (stereo not drawn) gave a melting point of 116 to 118 °C.

Source of the values: a melting point compilation (Tetko et al.; mined from patent text by program, amines drawn as free bases though some values may be those of a salt).
